Assay results as given in patent US20170354600A1, “COMPOSITION AND METHOD FOR STABILIZING GSH” (priority 2016, published 2017).
Read-outs that look alike come from different tables or passages of the source.

How the values were obtained:
[1] = GSH retention in liquid composition exposed to hydrogen peroxide oxidation (Ellman colorimetric, 405 nm); conditions: 0.1 mmol GSH, pH 8.0 buffer, 1 ml hydrogen peroxide 0.5% w/v
Experimental: 0.1 mmol of reduced glutathione (Kohjin Co. Ltd) was premixed with 5 g of liquid sorbitol (96%, Roquette Corp) using magnetic stirring for 10 minutes. Then, as described in Table 5, incremental concentrations of food grade antioxidants where added followed by additional 10 minutes of stirring. The mixture was then added to 100 g of 0.1M disodium phosphate/0.001 mM EDTA pH 8.0 buffer solution, then 1 ml of hydrogen peroxide solution 0.5% w/v was added to each test. A control test with no antioxidant was also performed.
After 1 hour of exposure to oxidation, 5 grams of the treated solution was added to 30 ml of 0.1M disodium phosphate/0.001 mM EDTA pH 8.5 buffer solution. This solution was then extracted 3 times with chloroform using a separation funnel. The remaining aqueous phase was added to a 100 ml volumetric flask and the volume was completed using 0.1M disodium phosphate/0.001 mM EDTA pH 8.0 buffer solution. The GSH present in this solution was quantify by colorimetric method at 405 nm using Elman's reagent, 5,5′-Dithio-bis-(2-nitrobenzoic acid), using L-glutathione 99%, provided by Sigma Aldrich, as standard. The retaining percentage for each solid composition was calculated and expressed as percentage values in Table 6. […]

[2] = GSH retention in solid composition exposed to hydrogen peroxide oxidation (Ellman colorimetric, 405 nm); conditions: 0.1 mmol GSH, 1 ml hydrogen peroxide 1.0% w/v
Experimental: 0.1 mmol of reduced glutathione (96%) was premixed with 5 g of liquid sorbitol (96%, Roquette Corp) using magnetic stirring for 15 minutes at room temperature. Then, as described in Table 2, an amount of each food grade antioxidant were separately added for each test, followed by an additional 10 minutes of stirring. The mixture was then homogeneously dispersed in 100 g of powder sorbitol using mechanical high shear blending for 3 minutes. 1 ml of hydrogen peroxide solution 1.0% w/v was added to each test and a continue mixing for additional 1 minute. A control test with no antioxidant was also performed.
After 6 hours of exposure to oxidation, 5 g of the treated solid mixture was added to 30 ml of 0.1M disodium phosphate/0.001 mM EDTA pH 8.0 buffer solution. This solution was then extracted 3 times with chloroform using a separation funnel. The remaining aqueous phase was added to 100 ml volumetric flask and the volume was completed using 0.1M disodium phosphate/0.001 mM EDTA pH 8.5 buffer solution. The GSH present in this solution was quantify by colorimetric method at 405 nm using Elman's reagent, 5,5′-Dithio-bis-(2-nitrobenzoic acid), using L-glutathione 99%, provided by Sigma Aldrich, as standard. The retaining percentage for each solid composition was calculated and expressed as percentage values in Table 3. […]

[3] = GSH, cited from earlier work

| SMILES | Retention percentage after 1 hour of oxidation in liquid composition ([1]; 0.001 mmol antioxidant) | Retention percentage after 1 hour of oxidation in liquid composition ([1]; 0.01 mmol antioxidant) | Retention percentage after 1 hour of oxidation in liquid composition ([1]; 1 mmol antioxidant) | Retention percentage after 1 hour of oxidation in liquid composition ([1]; 10 mmol antioxidant) | Retention percentage after 6 hours of oxidation in solid compositions ([2]; 0.001 mmol antioxidant) | Retention percentage after 6 hours of oxidation in solid compositions ([2]; 0.01 mmol antioxidant) | Retention percentage after 6 hours of oxidation in solid compositions ([2]; 10 mmol antioxidant) | Retention percentage after 6 hours of oxidation in solid compositions ([2]; 18.18 mmol antioxidant) | Half life ([3]; pH 6.5, 20° C., 0.1M K2HPO4/KH2PO4 Buffer) | Half life ([3]; pH 7.5, 20° C., 0.1M K2HPO4/KH2PO4 Buffer) | Half life ([3]; pH 8.5, 0° C., 0.1M K2HPO4/KH2PO4 Buffer) | Half life ([3]; pH 8.5, 20° C., 0.1M K2HPO4/KH2PO4 Buffer + 0.1 nM Cu + 2) | Half life ([3]; pH 8.5, 20° C., 0.1M K2HPO4/KH2PO4 Buffer + 1.0 nM EDTA) | Half life ([3]; pH 8.5, 20° C., 0.1M K2HPO4/KH2PO4 Buffer) | Half life ([3]; pH 8.5, 40° C., 0.1M K2HPO4/KH2PO4 Buffer) |
| --- | --- | --- | --- | --- | --- | --- | --- | --- | --- | --- | --- | --- | --- | --- | --- |
| CC(=O)Oc1c(C)c(C)c2c(c1C)CC[C@@](C)(CCC[C@H](C)CCC[C@H](C)CCCC(C)C)O2 [Vitamin E, DL alpha tocopheryl acetate] | 10.39% | 16.88% | 30.39% | 41.69% | 24.16% | 31.04% | 45.19% | 39.61% |  |  |  |  |  |  |  |
| N[C@@H](CCC(=O)N[C@@H](CS)C(=O)NCC(=O)O)C(=O)O [GSH, Reduced glutathione] |  |  |  |  |  |  |  |  | 16 min | 9 min | 8 min | 1.2 min | 70 min | 1.3 min | 0.2 min |
| CC(=O)OC/C=C(C)/C=C/C=C(C)/C=C/C1=C(C)CCCC1(C)C [Vitamin A, Vitamin A acetate] | 14.29% | 21.95% | 33.25% | 49.79% | 28.57% | 33.77% | 51.04% | 46.36% |  |  |  |  |  |  |  |
| O=C1O[C@H]([C@@H](O)CO)C(O)=C1O [Ascorbic acid, L-Ascorbic acid] | 0.00% | 0.00% | 17.92% | 32.08% | 0.00% | 14.29% | 28.96% | 18.18% |  |  |  |  |  |  |  |
| CCCCCCCCCCCCCCCC(=O)OC[C@H](O)[C@H]1OC(=O)C(O)=C1O [Ascorbyl palmitate] | 0.00% | 13.38% | 18.83% | 36.36% | 18.18% | 25.97% | 46.10% | 36.88% |  |  |  |  |  |  |  |
